Target: T1, human GPR120 (Homo sapiens, UniProt Q5NUL3)
T1 construct: host or cells: HEK293 cells co-expressing Gqi5
T1 sequence (Q5NUL3 1-361): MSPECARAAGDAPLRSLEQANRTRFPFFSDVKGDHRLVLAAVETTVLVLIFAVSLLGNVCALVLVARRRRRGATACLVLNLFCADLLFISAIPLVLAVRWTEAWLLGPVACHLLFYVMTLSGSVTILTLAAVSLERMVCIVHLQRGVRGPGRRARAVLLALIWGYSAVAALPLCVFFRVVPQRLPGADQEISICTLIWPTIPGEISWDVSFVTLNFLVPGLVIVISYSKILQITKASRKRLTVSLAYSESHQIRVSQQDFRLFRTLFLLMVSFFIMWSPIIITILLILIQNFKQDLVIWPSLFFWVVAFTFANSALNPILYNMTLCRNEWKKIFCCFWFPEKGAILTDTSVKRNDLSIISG
Assay: Intracellular Ca2+ assay in human GPR120 stable cell line (FLIPR Calcium 4 dye, Flexstation)
Assay type: cell-based
Conditions: % activity at 2.5 µM compared to the maximal activity of the compound of Example 25 at 2.5 µM (=100%); HEK293 cells co-expressing Gqi5; read-out: % Activity (Ex. 25 Reference Compound)
Description: Human GPR120 stable cell line was purchased from Multispan Inc (26219 Eden Landing Road, Hayward, CA94545). This GPR120 cell line was generated in HEK293 cells co-expressing Gqi5. In this cell line, the Flag epitope tag (DYKDDDDK) was fused to the amino terminus of human GPR120 protein.
The concentration of intracellular Ca^2+ was measured as described below. Human GPR120 cells were plated in 96 well plates (Poly-D-Lysine coated black/clear Plate, Greiner Bio-One) at 70,000 cells per well and cultured overnight in conditions of 37°C and 5% CO2. A Ca^2+ assay dye stock solution was prepared by adding 10 mL of assay buffer (HBSS/20mM HEPES, pH 7.4) to FLIPR Calcium 4 Assay Bulk Kit (Molecular Devices). The 10 mL of Ca^2+ assay dye solution was prepared by further diluting 0.5 mL of Ca^2+ assay dye stock solution with 10 mL of assay buffer. The medium of the cells was removed and immediately 100 µL of the Ca^2+ assay dye solution was dispensed into each well followed by incubation at 37°C and 5% CO2 for 50 minutes to incorporate the Ca^2+ dye into the cells. The cell plate was then placed in the Flexstation (Molecular Devices) for 20 minutes at 37°C. Compounds were dissolved in 100% DMSO and diluted to desired concentrations with assay buffer and placed in the Flexstation simultaneously with the cell plate for 20 minute incubation at 37°C prior to reading. Fluorescence intensity was measured immediately following compound addition (25 µL/well) on the Flexstation at an excitation wavelength of 485 nm and an emission wavelength of 525 with 515 nm auto cutoff. The resulting increase in fluorescence intensities corresponds to increases in intracellular Ca^2+ levels.
Compounds were dissolved in 100% DMSO to a concentration of 20 mM to provide stock solutions. To determine activity against human GPR120, compounds were added with human GPR120 stably expressing cells (described above), at eight desired concentrations ranging from 0.00001 to 20 µM, in 96 well plates and fluorescence intensities were measured for 90 seconds with 2-second intervals. An EC50 value (concentration of the GPR120 agonist where 50% of the agonist's maximal activity is observed) was calculated using the changes (Max-Min) of fluorescence intensity.
To determine percent activity for a tested compound, the fluorescence intensity value obtained at a particular concentration were compared to the maximal fluorescence intensity value obtained for reference compound GW9508 (4-[[(3-phenoxyphenyl)methyl]amino]benzene propanoic acid; British Journal of Pharmacology 2006 148, 619-628) or the compound of Example 25. When GW9508 was used as the reference compound, the maximal activity of GW9508 at 6.7µM was designated as 100% activity. When the compound of Example 25 was used as the reference compound, the maximal activity of the compound of Example 25 at 2.5 µM was designated as 100% activity. Typically, the GW9508 activity reached a maximum at a concentration of approximately 6.7 µM and typically the compound of Example 25 reached a maximum activity at approximately 2.5µM. […]

Row | Structure (SMILES) | activity at 2.5 µM
1 | CC1(C)Cc2cc(F)cc(CCc3ccc(OCC(=O)O)cc3)c2O1 [Example 70, 2-(4-(2-(5-fluoro-2,2-dimethyl-2,3-dihydrobenzofuran-7-yl)ethyl)phenoxy)acetic acid] | 118%

Same assay, conditions: HEK293, % activity at 2.5 µM compared to the maximal activity of the compound of Example 25 at 2.5 µM (=100%); HEK293 cells co-expressing Gqi5; read-out: % Activity (Ex. 25 Reference Compound)

Row | activity at 2.5 µM | Structure (SMILES)
2 | 116% | CC1(C)Cc2cc(Cl)cc(COc3c(F)cc(C4CC4CC(=O)O)cc3F)c2O1 (centres unmarked) [Example 41, 2-(2-(4-((5-chloro-2,2-dimethyl-2,3-dihydrobenzofuran-7-yl)methoxy)-3,5-difluorophenyl)cyclopropyl)acetic acid]
3 | 141% | CC(Cc1cc(F)c(OCc2c(F)c(F)cc3c2OC(C)(C)C3)c(F)c1)C(=O)O (centres unmarked) [Example 42, 3-(4-((5,6-difluoro-2,2-dimethyl-2,3-dihydrobenzofuran-7-yl)methoxy)-3,5-difluorophenyl)-2-methylpropanoic acid]
4 | 157% | CC(Cc1ccc(COc2cccc3c2OC(C)(C)C3)c(F)c1)C(=O)O (centres unmarked) [Example 44, 3-(4-(((2,2-dimethyl-2,3-dihydrobenzofuran-7-yl)oxy)methyl)-3-fluorophenyl)-2-methylpropanoic acid]
5 | 79.6% | CC(Cc1ccc(OCc2cc(F)cc3c2OCOC3)cc1)C(=O)O (centres unmarked) [Example 45, 3-(4-((6-fluoro-4H-benzo[d][1,3]dioxin-8-yl)methoxy)phenyl)-2-methylpropanoic acid]
6 | 114% | Cc1cc(OCc2cc(F)cc3c2OC(C)(C)C3)ccc1CCC(=O)O [Example 46, 3-(4-((5-fluoro-2,2-dimethyl-2,3-dihydrobenzofuran-7-yl)methoxy)-2-methylphenyl)propanoic acid]
7 | 111% | CC1(C)Cc2cc(F)cc(COc3ccc(CCC(=O)O)c(Cl)c3)c2O1 [Example 47, 3-(2-chloro-4-((5-fluoro-2,2-dimethyl-2,3-dihydrobenzofuran-7-yl)methoxy)phenyl)propanoic acid]
8 | 143% | CC1(C)Cc2cc(Cl)cc(COc3ccc(CCC(=O)O)c(F)c3)c2O1 [Example 53, 3-(4-((5-chloro-2,2-dimethyl-2,3-dihydrobenzofuran-7-yl)methoxy)-2-fluorophenyl)-propanoic acid]
9 | 139% | CC1(C)Cc2cc(Cl)cc(COc3cc(F)c(CCC(=O)O)c(F)c3)c2O1 [Example 54, 3-(4-((5-chloro-2,2-dimethyl-2,3-dihydrobenzofuran-7-yl)methoxy)-2,6-difluorophenyl)propanoic acid]
10 | 109% | COc1cc(CCC(=O)O)c(Br)cc1OCc1cc(F)cc2c1OC(C)(C)C2 [Example 56, 3-(2-bromo-4-((5-fluoro-2,2-dimethyl-2,3-dihydrobenzofuran-7-yl)methoxy)-5-methoxyphenyl)propanoic acid]
11 | 118% | CC1(C)Cc2cc(Cl)cc(COc3ccc(SCC(=O)O)cc3)c2O1 [Example 59, 2-((4-((5-chloro-2,2-dimethyl-2,3-dihydrobenzofuran-7-yl)methoxy)phenyl)thio)-acetic acid]
12 | 95% | CC1(C)Cc2cc(F)cc(COc3ccc(CCC(=O)O)c4c3CCC4)c2O1 [Example 63, 3-(7-((5-fluoro-2,2-dimethyl-2,3-dihydrobenzofuran-7-yl)methoxy)-2,3-dihydro-1H-inden-4-yl)propanoic acid]
13 | 142% | CC(Cc1ccc(NCc2cc(F)cc3c2OC(C)(C)C3)cc1)C(=O)O (centres unmarked) [Example 67, 3-(4-(((5-fluoro-2,2-dimethyl-2,3-dihydrobenzofuran-7-yl)methyl)amino)phenyl)-2-methylpropanoic acid]
14 | 69% | CC(Cc1ccc(NC(=O)c2cc(F)cc3c2OC(C)(C)C3)cc1)C(=O)O (centres unmarked) [Example 68, 3-(4-(5-fluoro-2,2-dimethyl-2,3-dihydrobenzofuran-7-carboxamido)phenyl)-2-methylpropanoic acid]
15 | 78.5% | CCOC(Cc1cc(F)c(OCc2cc(F)cc3c2OC(C)(C)C3)c(F)c1)C(=O)O (centres unmarked) [Example 69, 3-(3,5-difluoro-4-((5-fluoro-2,2-dimethyl-2,3-dihydrobenzofuran-7-yl)methoxy)phenyl)-2-ethoxypropanoic acid]

Same assay, conditions: HEK293, % activity at 5 µM compared to the maximal activity of GW9508 at 6.7 µM (=100%); HEK293 cells co-expressing Gqi5; read-out: %Activity (GW9508 Reference Compound)

Row | activity at 5 µM | Structure (SMILES)
16 | 134% | CC(Cc1ccc(OCc2ccc(F)c3c2OC(C)(C)C3)c(F)c1)C(=O)O (centres unmarked) [Example 29, 3-(3-fluoro-4-((4-fluoro-2,2-dimethyl-2,3-dihydrobenzofuran-7-yl)methoxy)phenyl)-2-methylpropanoic acid]
17 | 177% | CC(Cc1ccc(OCc2ccc(F)c3c2OC(C)(C)C3)cc1)C(=O)O (centres unmarked) [Example 30, 3-(4-((4-fluoro-2,2-dimethyl-2,3-dihydrobenzofuran-7-yl)methoxy)phenyl)-2-methylpropanoic acid]
18 | 150% | CC1(C)Cc2c(C(F)(F)F)ccc(COc3c(F)cc(C4CC4C(=O)O)cc3F)c2O1 (centres unmarked) [Example 31, 2-(4-((2,2-dimethyl-4-(trifluoromethyl)-2,3-dihydrobenzofuran-7-yl)methoxy)-3,5-difluorophenyl)cyclopropanecarboxylic acid]
19 | 143% | CC(Cc1cc(F)c(OCc2ccc(C(F)(F)F)c3c2OC(C)(C)C3)c(F)c1)C(=O)O (centres unmarked) [Example 32, 3-(4-((2,2-dimethyl-4-(trifluoromethyl)-2,3-dihydrobenzofuran-7-yl)methoxy)-3,5-difluorophenyl)-2-methylpropanoic acid]
20 | 143% | CC(Cc1ccc(OCc2ccc(C(F)(F)F)c3c2OC(C)(C)C3)c(F)c1)C(=O)O (centres unmarked) [Example 33, 3-(4-((2,2-dimethyl-4-(trifluoromethyl)-2,3-dihydrobenzofuran-7-yl)methoxy)-3-fluorophenyl)-2-methylpropanoic acid]
21 | 118% | CC(Cc1ccc(OCc2ccc(C(F)(F)F)c3c2OC(C)(C)C3)cc1)C(=O)O (centres unmarked) [Example 34, 3-(4-((2,2-dimethyl-4-(trifluoromethyl)-2,3-dihydrobenzofuran-7-yl)methoxy)phenyl)-2-methylpropanoic acid]
22 | 125% | CC1(C)Cc2cc(F)cc(COc3ccc4c(c3)CCC4CC(=O)O)c2O1 (centres unmarked) [Example 37, 2-(5-((5-fluoro-2,2-dimethyl-2,3-dihydrobenzofuran-7-yl)methoxy)-2,3-dihydro-1H-inden-1-yl)acetic acid]
23 | 83.4% | CC(Cc1cc(F)c(OCc2cc(Cl)cc3c2OC(C)(C)C3)c(F)c1)C(=O)O (centres unmarked) [Example 38, 3-(4-((5-chloro-2,2-dimethyl-2,3-dihydrobenzofuran-7-yl)methoxy)-3,5-difluorophenyl)-2-methylpropanoic acid]
24 | 95.3% | CC(Cc1cc(F)c(OCc2cccc3c2OC(C)C3C)c(F)c1)C(=O)O (centres unmarked) [Example 40, 3-(4-((2,3-dimethyl-2,3-dihydrobenzofuran-7-yl)methoxy)-3,5-difluorophenyl)-2-methylpropanoic acid]

Same assay, conditions: eight concentrations from 0.00001 to 20 µM; changes (Max-Min) of fluorescence intensity

Row | EC50 | Structure (SMILES)
25 | > 10 µM | CC(Cc1ccc(OCc2ccc(C(F)(F)F)c3c2OC(C)(C)C3)cc1)C(=O)O (centres unmarked) [Example 34, 3-(4-((2,2-dimethyl-4-(trifluoromethyl)-2,3-dihydrobenzofuran-7-yl)methoxy)phenyl)-2-methylpropanoic acid]
26 | 1 to 10 µM | CC(Cc1cc(F)c(OCc2c(F)c(F)cc3c2OC(C)(C)C3)c(F)c1)C(=O)O (centres unmarked) [Example 42, 3-(4-((5,6-difluoro-2,2-dimethyl-2,3-dihydrobenzofuran-7-yl)methoxy)-3,5-difluorophenyl)-2-methylpropanoic acid]
27 | > 10 µM | CC(Cc1ccc(OCc2c(F)c(F)cc3c2OC(C)(C)C3)cc1)C(=O)O (centres unmarked) [Example 43, 3-(4-((5,6-difluoro-2,2-dimethyl-2,3-dihydrobenzofuran-7-yl)methoxy)phenyl)-2-methylpropanoic acid]
28 | 1 to 10 µM | CC(Cc1ccc(COc2cccc3c2OC(C)(C)C3)c(F)c1)C(=O)O (centres unmarked) [Example 44, 3-(4-(((2,2-dimethyl-2,3-dihydrobenzofuran-7-yl)oxy)methyl)-3-fluorophenyl)-2-methylpropanoic acid]
29 | > 10 µM | CC(Cc1ccc(OCc2cc(F)cc3c2OCOC3)cc1)C(=O)O (centres unmarked) [Example 45, 3-(4-((6-fluoro-4H-benzo[d][1,3]dioxin-8-yl)methoxy)phenyl)-2-methylpropanoic acid]

— patent EP2582674B1 (Cymabay Therapeutics, Inc., priority 2010, dated 2011)
